The values that follow come from patent US20110217309A1, “BIOLOGICAL MARKERS PREDICTIVE OF ANTI-CANCER RESPONSE TO INSULIN-LIKE GROWTH FACTOR-1 RECEPTOR KINASE INHIBITORS” (priority 2010, published 2011).

The test system of one assay is Akt. Put plainly: Phosphorylation of Akt (pAKT levels). The class given is cell-based. The conditions noted are these: OSI-906, in the presence or absence of pactitaxel (100, 30, 10, 3, 1 nM). The procedure: The dotted line in the plot represents the calculated theoretical expectation if the combination was additive in nature, and was determined using the Bliss model for additivity. […] C.
The dotted line in the plot represents the calculated theoretical result if the combination was additive in nature, and was determined using the Bliss model for additivity.

For another assay, the system named is BT20. Put plainly: Cell Titer Glo proliferation assay. The class given is cell-based, human. To be noted: BT20 breast cancer, PIK3CA mutant. From the text:
Cell Lines and Culture. Human cancer cell lines, were obtained from American Type Culture Collection (ATCC, Manassas, Va.), or the following additional indicated sources, and cultured in media as described. Tumor types are also indicated: H295R (adrenocortical carcinoma; ATCC), NCI-[…], NCI-[…], SW1573 (NSCLC; ATCC), […], BxPC3 (pancreatic; ATCC), OVCAR5 (ovarian; NCI), MDAH-2774 (ovarian; ATCC), Igrov1 (ovarian; NCI), GEO (colon; Roswell Park Cancer Institute (RPCC)), HT-29 (colon; ATCC), RKO (colon; ATCC), […], 8226 (myeloma; ATCC), H929 (myeloma; ATCC), U266 (myeloma; ATCC), SKES1 (Ewings sarcoma; ATCC), RDES (Ewings sarcoma; ATCC), RD (rhabdomyosarcoma; ATCC), DU4475 (breast; ATCC), SKNAS (neuroblastoma; ATCC), 2650 (nasal SCC; ATCC), OVCAR4 (ovarian; NCI), A673 (Ewings sarcoma; ATCC), BT474 (breast; ATCC), 1386 (oral SCC; MSKCC, NY), 1186 (SCCHN; MSKCC, NY), Colo205 (colon; ATCC), HCT-15 (colon; ATCC), Fadu (oral SCC; ATCC), SKBR3 (breast; ATCC), 1483 (HNSCC; MSKCC, NY), HSC-2 (HNSCC; RIKEN BioResource Center, Tsukuba, Ibaraki, 305-0074, Japan), SKOV-3 (ovarian; ATCC), OVCAR-3 (ovarian; NCI), OVCAR-8 (ovarian; NCI), CaOV3 (ovarian; ATCC). […] The cells were routinely screened for the presence of mycoplasma (MycoAlert, Cambrex Bio Science, Baltimore, Md.). For growth inhibition assays, cells were plated and allowed to proliferate for 24 hours. […] Cell viability was assayed using the Cell Titer-Glo reagent (Promega Corp., Madison, Wis.). Proliferation Assay. […] The basis of the assay is a luminescent quantitation of ATP present in a cell culture plate well. In essence, the greater the number of viable cells in the well, the greater the level of ATP present. The assay utilizes a substrate that binds ATP to produce a luminescent signal, which can be read on a luminometer. Unless otherwise noted, the manufacturer's instructions were followed exactly. Briefly, on Day 1, cells were plated in 120 μl of 10% serum-containing growth media at a density of 4000 cells/well in a white polystyrene 96 well assay plate. […] After 72 h incubation with the inhibitor, the cells were assayed. Results were calculated as a fraction of the DMSO controlled cells.

The test system of the next assay is FaDu tumors. Put plainly: Tumor xenograft study. To be noted: treatment in vivo for 10-14 days.

Consider `C[C@]1(O)C[C@@H](c2nc(-c3ccc4ccc(-c5ccccc5)nc4c3)c3c(N)nccn32)C1` [OSI-906, cis-3-[8-amino-1-(2-phenyl-quinolin-7-yl)-imidazo[1,5-a]pyrazin-3-yl]-1-methyl-cyclobutanol], for which, in the assay on Akt, the “phosphorylation of Akt (pAKT levels)” value was “decrease”. In addition, in the assay with BT20, the “sensitivity to OSI-906” value is recorded as “insensitive (insensitive (EC50>10 μM))”. The “% TGI (tumor growth inhibition)” value in the assay with FaDu tumors is given as less than 30%.
